According to patent publication US20240415819A1, “MACROCYCLIC COMPOUNDS AS PROTEASOME SUBUNIT BETA TYPE-5 INHIBITORS” (Lead Discovery Center GmbH, priority 2021, published 2024):
pIC50: −log10 of the molar value.

Key:
HT-29 cells = test: CellTiter-Glo luminescent cell viability assay with HT-29 cells (72h incubation); format: cell-based, human; details: Homo sapiens, HT-29, HT29 cells, read-out: CTG HT29
In short: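 400 cells per well in DMEM/10% FCS were dosed after 24 h and kept 72 h at 37 °C, 5% CO2. ATP-based luminescence (CellTiter-Glo) normalized to DMSO and 10 μM staurosporine controls; IC50 by dose-response fit.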

[1] = tested on: A549 (human lung carcinoma cell line); test: Glo assay of A549 cells (Table 3; ProteasomeGlo plating scheme); format: cell-based; details: Homo sapiens; A549 cells; read-out: PGLo A549
In short: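 Compound treatment lasts 105 minutes at 37° C. under 5% CO2. Suc-LLVY-Glo substrate premixed with detection reagent (60 min at room temperature) is then added directly to the cells, and luminescence after 10-15 min in the dark gives the IC50 in nM.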

Row | Compound | pIC50 (HT-29 cells) | pIC50 [1]
1 | C=CC(=O)N[C@H]1CC(=O)N2CCCC(CCOc3ccc(C)c(c3)CNC(=O)[C@H](CCc3ccccc3)NC1=O)C2 (stereo partly drawn) [Compound 181, N-((9S,12S)-5^4-methyl-8,11,14-trioxo-9-phenethyl-4-oxa-7,10-diaza-1(3,1)-piperidina-5(1,3)-benzenacyclotetradecaphane-12-yl)acrylamide] | > 7.00 | > 7.00
2 | CC(=O)N[C@H]1CCC(=O)N2CCCC(C2)Oc2ccc(C)c(c2)CNC(=O)[C@H](CCc2ccccc2)NC1=O (stereo partly drawn) [Compound 148, N-((7S,10S)-3^4-methyl-6,9,13-trioxo-7-phenethyl-2-oxa-5,8-diaza-1(3,1)-piperidina-3(1,3)-benzenacyclotridecaphane-10-yl)acetamide] | 6.30 to 7.00 | < 5.30
3 | Cc1ccc2cc1CNC(=O)[C@@H](CCc1ccccc1)NC(=O)[C@@H](NC(=O)OCc1ccccc1)CC(=O)N1CCC[C@H](CCO2)C1 [Compound 289, benzyl ((13R,9R,12S)-5^4-methyl-8,11,14-trioxo-9-phenethyl-4-oxa-7,10-diaza-1(3,1)-piperidina-5(1,3)-benzenacyclotetradecaphane-12-yl)carbamate] | 6.30 to 7.00 | 6.00 to 6.30
4 | CC(=O)N[C@H]1CC(=O)N2CCCC(CCOc3ccc(F)c(c3)CNC(=O)[C@H](CCc3ccccc3)NC1=O)C2 (stereo partly drawn) [Compound 205, N-((9S,12S)-5^4-fluoro-8,11,14-trioxo-9-phenethyl-4-oxa-7,10-diaza-1(3,1)-piperidina-5(1,3)-benzenacyclotetradecaphane-12-yl)acetamide] | > 7.00 | > 7.00
5 | Cc1ccc2cc1CNC(=O)[C@H](CCc1ccccc1)NC(=O)[C@@H](NS(C)(=O)=O)CC(=O)N1CCCC(CCO2)C1 (stereo partly drawn) [Compound 37, N-((9S,12S)-5^4-methyl-8,11,14-trioxo-9-phenethyl-4-oxa-7,10-diaza-1(3,1)-piperidina-5(1,3)-benzenacyclotetradecaphane-12-yl)methanesulfonamide] | > 7.00 | > 7.00
6 | Cc1ccc2cc1CNC(=O)[C@H](CCc1ccccc1)NC(=O)[C@@H](N)CC(=O)N1CCCC(CCO2)C1 (stereo partly drawn) [Compound 8, (9S,12S)-12-amino-5^4-methyl-9-phenethyl-4-oxa-7,10-diaza-1(3,1)-piperidina-5(1,3)-benzenacyclotetradecaphane-8,11,14-trione] | 6.30 to 7.00 | 6.00 to 6.30
7 | COc1ccc(CC(=O)N[C@H]2CC(=O)N3CCCC(CCOc4ccc(C)c(c4)CNC(=O)[C@H](CCc4ccccc4)NC2=O)C3)cc1 (stereo partly drawn) [Compound 83, 2-(4-methoxyphenyl)-N-((9S,12S)-5^4-methyl-8,11,14-trioxo-9-phenethyl-4-oxa-7,10-diaza-1(3,1)-piperidina-5(1,3)-benzenacyclotetradecaphane-12-yl)acetamide] | > 7.00 | > 7.00
8 | Cc1ccc2cc1CNC(=O)C(c1cnn(C)c1)NC(=O)CCC(=O)N1CCCC(CCO2)C1 (stereo not shown) [Compound 116, 5^4-methyl-9-(1-methyl-1H-pyrazol-4-yl)-4-oxa-7,10-diaza-1(3,1)-piperidina-5(1,3)-benzenacyclotetradecaphane-8,11,14-trione] | 6.30 to 7.00 | < 5.30

Next, values leading:

Row | pIC50 (HT-29 cells) | pIC50 [1] | Compound
9 | > 7.00 | 6.30 to 7.00 | Cc1ccc2cc1CNC(=O)[C@H](CCc1ccccc1)NC(=O)[C@@H](NS(=O)(=O)Cc1ccccc1)CC(=O)N1CCCC(CCO2)C1 (stereo partly drawn) [Compound 216, N-((9S,12S)-5^4-methyl-8,11,14-trioxo-9-phenethyl-4-oxa-7,10-diaza-1(3,1)-piperidina-5(1,3)-benzenacyclotetradecaphane-12-yl)-1-phenylmethanesulfonamide]
10 | 6.00 to 6.30 | 6.00 to 6.30 | Cc1ccc2cc1CNC(=O)[C@H](CCc1ccccc1)NC(=O)CCC(=O)N1CCCC(CCO2)C1 (stereo partly drawn) [Compound 13, (9S)-5^4-methyl-9-phenethyl-4-oxa-7,10-diaza-1(3,1)-piperidina-5(1,3)-benzenacyclotetradecaphane-8,11,14-trione]
11 | > 7.00 | 6.30 to 7.00 | Cc1ccc2cc1CNC(=O)[C@H](CCc1ccccc1)NC(=O)[C@@H](NC(=O)C(C)(C)CO)CC(=O)N1CCCC(CCO2)C1 (stereo partly drawn) [Compound 284, 3-hydroxy-2,2-dimethyl-N-((9S,12S)-5^4-methyl-8,11,14-trioxo-9-phenethyl-4-oxa-7,10-diaza-1(3,1)-piperidina-5(1,3)-benzenacyclotetradecaphane-12-yl)propanamide]
12 | > 7.00 | > 7.00 | Cc1ccc2cc1CNC(=O)[C@H](CCc1ccccc1)NC(=O)[C@@H](NC(=O)CCc1ccc(Br)cc1)CC(=O)N1CCCC(CCO2)C1 (stereo partly drawn) [Compound 175, 3-(4-bromophenyl)-N-((9S,12S)-5^4-methyl-8,11,14-trioxo-9-phenethyl-4-oxa-7,10-diaza-1(3,1)-piperidina-5(1,3)-benzenacyclotetradecaphane-12-yl)propanamide]
13 | > 7.00 | 6.30 to 7.00 | Cc1ccc2cc1CNC(=O)[C@H](CCc1ccccc1)NC(=O)[C@@H](NC(=O)C1CCC(C(F)(F)F)N1)CC(=O)N1CCCC(CCO2)C1 (stereo partly drawn) [Compound 157, N-((9S,12S)-5^4-methyl-8,11,14-trioxo-9-phenethyl-4-oxa-7,10-diaza-1(3,1)-piperidina-5(1,3)-benzenacyclotetradecaphane-12-yl)-5-(trifluoromethyl)pyrrolidine-2-carboxamide]
14 | > 7.00 | 6.30 to 7.00 | CCC(CC)(CO)C(=O)N[C@H]1CC(=O)N2CCCC(CCOc3ccc(C)c(c3)CNC(=O)[C@H](CCc3ccccc3)NC1=O)C2 (stereo partly drawn) [Compound 285, 2-ethyl-2-(hydroxymethyl)-N-((9S,12S)-5^4-methyl-8,11,14-trioxo-9-phenethyl-4-oxa-7,10-diaza-1(3,1)-piperidina-5(1,3)-benzenacyclotetradecaphane-12-yl)butanamide]
15 | 6.30 to 7.00 | > 7.00 | Cc1ccc2cc1CNC(=O)[C@H](CCc1ccccc1)NC(=O)[C@@H](NC(=O)CN1CCNCC1)CC(=O)N1CCCC(CCO2)C1 (stereo partly drawn) [Compound 126, N-((9S,12S)-5^4-methyl-8,11,14-trioxo-9-phenethyl-4-oxa-7,10-diaza-1(3,1)-piperidina-5(1,3)-benzenacyclotetradecaphane-12-yl)-2-(piperazin-1-yl)acetamide]
16 | > 7.00 | > 7.00 | COc1ccccc1CC(=O)N[C@H]1CC(=O)N2CCCC(CCOc3ccc(C)c(c3)CNC(=O)[C@H](CCc3ccccc3)NC1=O)C2 (stereo partly drawn) [Compound 84, 2-(2-methoxyphenyl)-N-((9S,12S)-5^4-methyl-8,11,14-trioxo-9-phenethyl-4-oxa-7,10-diaza-1(3,1)-piperidina-5(1,3)-benzenacyclotetradecaphane-12-yl)acetamide]
17 | 6.30 to 7.00 | 6.30 to 7.00 | CC(=O)N[C@H]1CCC(=O)N2CCOC(CCOc3ccc(C)c(c3)CNC(=O)[C@H](CCc3ccccc3)NC1=O)C2 (stereo partly drawn) [Compound 143, N-((9S,12S)-5^4-methyl-8,11,15-trioxo-9-phenethyl-4-oxa-7,10-diaza-1(2,4)-morpholina-5(1,3)-benzenacyclopentadecaphane-12-yl)acetamide]
